Assay results: paper PMC7721954, “Preclinical comparison of four [^18F, ^natGa]rhPSMA-7 isomers: influence of the stereoconfiguration on pharmacokinetics” (EJNMMI Research, 2020)
Where two headings read alike, the source gives them in different places.

Key:
PSMA [1] = molecular target: T1, PSMA (Homo sapiens, UniProt Q04609); conditions: LNCaP cells, 1 h, 4 °C, n = 3; read-out: IC50 (binding affinity); cited from earlier work
T1 construct: host or cells: LNCaP cells

PSMA [2] = molecular target: T1, PSMA; assay: Competitive binding (IC50) on LNCaP cells vs ([125I]I-BA)KuE; conditions: ratio of IC50 values
Description: (§1) Competitive binding studies were determined on LNCaP cells (1.5 × 10^5 cells in 1 mL/well) after incubation at 4 °C for 1 h, using (((S)-1-carboxy-5-(4-([^125I]iodo)benzamido)pentyl)carbamoyl)-L-glutamic acid (([^125I]I-BA)KuE; 0.2 nM/well) as reference radioligand (n = 5–9). Internalization studies of the radiolabeled ligands (0.5 nM/well) were performed on LNCaP cells (1.25 × 10^5 cells in 1 mL/well) at 37 °C for 1 h and accompanied by ([^125I]I-BA)KuE (0.2 nM/well), as reference. Data were corrected for non-specific binding and normalized to the specific internalization observed for the reference (n = 3–6). A detailed description of the experimental procedures was previously published.

human serum albumin [3] = molecular target: T2, human serum albumin (Homo sapiens, UniProt P02768); assay: Human serum albumin binding on Chiralpak HSA column; assay type: in vitro ADME
T2 construct: purchased
Description: Approximately 1 MBq of the ^18F-ligand was dissolved in 1 mL of a 1:1 mixture (v/v) of phosphate-buffered saline (PBS, pH 7.4) and n-octanol (n = 18–23). After vigorous mixing of the suspension for 3 min, the vial was centrifuged at 15,000 × g for 3 min and 100 μL aliquots of both layers were measured in a γ-counter. HSA binding of ^19F-^natGa-rhPSMA ligands was determined according to a previously published procedure.

LNCaP tumor-bearing mice = assay: Differential uptake and excretion pattern of isomers after injection of the diastereomeric mixture (radio-HPLC); assay type: in vivo; conditions: blood, liver, kidney and tumor, 30 min p.i., n = 4
Description: With the intention to identify even marginal differences in the in vivo behavior, all four [^18F, ^natGa]rhPSMA-7 isomers were co-evaluated in one single tumor-bearing mouse in order to quantify the differential uptake and excretion pattern of each isomer. For this purpose, the diastereomeric mixture [^18F, ^natGa]rhPSMA-7 was produced in high molar activity (AM) of 247–349 GBq/µmol (at end of synthesis) and the abundance of each isomer was determined by radio-HPLC. Mice (n = 4) were injected with [^18F, ^natGa]rhPSMA-7 (180–280 MBq, 0.9–1.0 nmol) and left under anesthesia. After 30 min p.i., they were sacrificed and urine, blood, liver, kidneys and tumor were collected and processed. Radioactivity was extracted from solid tissues by means of a Potter–Elvehjem tissue grinder (n = 1) or a ball mill (n = 3) and separated from the protein fraction by subsequent cartridge-based solid-phase extraction (SPE). Blood samples were diluted, centrifuged and the supernatant was purified by SPE (see supporting information). Urine and extracts from tissue samples were then analyzed by radio-HPLC to quantify the fraction of each isomer in each sample. Finally, the relative percentage difference between the abundance of each isomer in the injected diastereomeric mixture (values taken from the quality control) and the abundance of the respective isomer in each analyzed tissue or body fluid was calculated. […] PeakFit allows for automated nonlinear separation, analysis and quantification of HPLC elution profiles by deconvolution procedures that uses a Gaussian response function with a Fourier deconvolution/filtering algorithm (see Additional file 1: Fig. 7).
Extraction via the Potter-Elvehjem Tissue Grinder. Tumor and kidneys were separately homogenized in the tissue homogeniser with 1 mL of extraction buffer (850 μL 1 M HEPES pH 7.4, 100 μL 20 mM PMPA and 100 μL 1 M NaCl) for 30 min. The resulting homogenate was collected and centrifuged at 13000×g for 5 min. Subsequently, the supernatant was collected, centrifuged again (13000×g, 5 min) and loaded on a Strata X cartridge (33 μm Polymeric Reversed Phase 500 mg) preconditioned with 5 mL MeOH, followed by 5 mL H2O. After washing with 5 mL H2O, the cartridge was eluted with a 3:2 mixture (v/v) of MeCN in H2O supplemented with 1% TFA. For radio-HPLC analysis the eluates were diluted with water.
Extraction via the MM-400 Ball Mill. The samples (tumor, kidney, liver) were separately homogenized in a 2 mL tube together with 3 grinding balls (3 mm diameter) and 1 mL of extraction buffer (850 μL 1 M HEPES pH 7.4, 100 μL 20 mM PMPA and 100 μL 1 M NaCl) for 10 min at 30 Hz. The homogenate was centrifuged at 13 000×g for 5 min and the supernatant was collected. […]

LNCaP cells [4] = assay: Internalization into LNCaP cells relative to ([125I]I-BA)KuE; assay type: cell-based; conditions: 1 h, 37 °C, percentage of reference ligand ([125I]I-BA)KuE, n = 3-6
Description: as §1

[5] = system: LNCaP tumor-bearing male CB-17 SCID mice; assay: Biodistribution 1 h p.i. with competition (co-injection of 2-PMPA); assay type: in vivo; conditions: co-injected with 2-PMPA (8 mg/kg), n = 3
Description: (§2) LNCaP tumor xenografts were established in 6–8 weeks old male CB-17 SCID mice as described previously.
(§3) 1–3 MBq (0.2 nmol) of the [^18F, ^natGa]rhPSMA inhibitors were injected into the tail vein of LNCaP tumor-bearing male CB-17 SCID mice that were sacrificed 1 h post injection (p.i.) (n = 4 for 7.1, n = 5 for 7.2, n = 4 for 7.3, n = 5 for 7.4 and n = 3 for 7). Selected organs were removed, weighed, and measured in a γ-counter. For competition studies, 8 mg/kg of 2-PMPA (2-(Phosphonomethyl)-pentandioic acid) were co-administered (n = 3).

[6] = system: LNCaP tumor-bearing male CB-17 SCID mice; assay: Biodistribution 1 h p.i.; assay type: in vivo
Description: as §2, §3

LNCaP cells [7] = conditions: 1 h, 37 °C, percentage of reference ligand ([125I]I-BA)KuE, n = 3; cited from earlier work
[8] = n-octanol/PBS pH 7.4, cited from earlier work
human serum albumin [9] = molecular target: T2, human serum albumin; conditions: Chiralpak HSA column, cited from earlier work
[10] = parameters: method as in PMID 16888726, doi:10.1016/j.jfluchem.2010.10.008; conditions: cited from earlier work

T2 sequence (P02768 25-609): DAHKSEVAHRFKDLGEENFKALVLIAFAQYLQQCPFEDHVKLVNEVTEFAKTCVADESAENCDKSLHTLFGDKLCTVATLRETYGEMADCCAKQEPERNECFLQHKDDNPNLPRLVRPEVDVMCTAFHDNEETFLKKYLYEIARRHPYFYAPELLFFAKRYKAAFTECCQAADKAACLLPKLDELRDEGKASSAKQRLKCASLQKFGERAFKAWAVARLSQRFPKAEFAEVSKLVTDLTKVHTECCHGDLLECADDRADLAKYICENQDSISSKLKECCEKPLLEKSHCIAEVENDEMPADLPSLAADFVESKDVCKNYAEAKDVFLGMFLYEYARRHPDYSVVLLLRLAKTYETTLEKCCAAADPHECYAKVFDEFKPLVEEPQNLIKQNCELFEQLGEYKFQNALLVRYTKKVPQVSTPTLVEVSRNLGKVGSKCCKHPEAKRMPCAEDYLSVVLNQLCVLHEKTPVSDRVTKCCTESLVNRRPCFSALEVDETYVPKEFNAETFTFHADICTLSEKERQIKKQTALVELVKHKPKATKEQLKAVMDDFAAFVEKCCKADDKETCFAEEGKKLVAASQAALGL
T1 sequence (Q04609 whole entry): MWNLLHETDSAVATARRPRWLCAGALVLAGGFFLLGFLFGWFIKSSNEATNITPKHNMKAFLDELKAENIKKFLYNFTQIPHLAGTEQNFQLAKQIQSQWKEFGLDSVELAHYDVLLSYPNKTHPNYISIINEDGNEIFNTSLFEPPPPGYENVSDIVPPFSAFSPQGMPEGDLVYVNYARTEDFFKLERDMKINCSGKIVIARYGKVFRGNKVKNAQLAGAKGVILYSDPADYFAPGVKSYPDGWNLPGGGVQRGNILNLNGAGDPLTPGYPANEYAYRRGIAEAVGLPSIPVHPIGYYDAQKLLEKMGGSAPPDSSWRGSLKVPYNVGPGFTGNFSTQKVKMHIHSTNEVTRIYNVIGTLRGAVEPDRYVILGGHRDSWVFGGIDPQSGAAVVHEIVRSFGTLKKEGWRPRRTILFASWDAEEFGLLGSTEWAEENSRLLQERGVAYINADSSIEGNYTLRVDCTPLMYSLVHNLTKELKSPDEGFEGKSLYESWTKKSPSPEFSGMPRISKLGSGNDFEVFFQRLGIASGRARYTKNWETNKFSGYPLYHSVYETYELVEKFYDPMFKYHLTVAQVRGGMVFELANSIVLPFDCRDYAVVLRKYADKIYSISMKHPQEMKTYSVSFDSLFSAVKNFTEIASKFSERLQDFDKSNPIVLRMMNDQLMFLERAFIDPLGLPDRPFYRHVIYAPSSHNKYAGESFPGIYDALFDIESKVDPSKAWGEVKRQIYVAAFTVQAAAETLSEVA

In the case of `O=C(O)CC[C@H](NC(=O)N[C@@H](CCCCNC(=O)[C@H](Cc1ccc2ccccc2c1)NC(=O)c1ccc(CNC(=O)[C@H](CCC(=O)O)NC(=O)[C@H](CCC(=O)O)NC(=O)c2ccc(F)nc2)cc1)C(=O)O)C(=O)O` [[^18/19F]PSMA-1007], the IC50 (PSMA [1]) is given as 4.2 ± 0.5 nM.

With `CC(C)(C)[Si]([18F])(c1ccc(C(=O)NC[C@@H](NC(=O)CC[C@H](C(=O)O)N2CCN(CC(=O)[O-])CCN(CC(=O)[O-])CCN(CC(=O)[O-])CC2)C(=O)N[C@H](CCCCNC(=O)CCC(=O)NCCC[C@@H](NC(=O)CC[C@H](NC(=O)N[C@@H](CCC(=O)O)C(=O)O)C(=O)O)C(=O)O)C(=O)O)cc1)C(C)(C)C.[Ga+3]` [[^18F, ^natGa]rhPSMA-7.1] the “Affinity fold higher than that of [19F]DCFPyL” value (PSMA [2]) was 1.8 fold, the HSA-binding (human serum albumin [3]) was 98% and the “Abundance (enrichment) of the isomer in tissue compared to time point of injection” value (LNCaP tumor-bearing mice) was “higher”. The “Internalization (internalized activity)” value (LNCaP cells [4]) was 70 ± 5 % of reference, the “Biodistribution Adrenals” value [5] was 0.003 ± 0.004 % ID/g and the “Biodistribution Blood” value [5] was 0.86 ± 0.40 % ID/g. The “Biodistribution Bone” value [5] was 0.33 ± 0.24 % ID/g, the “Biodistribution Heart” value [5] was 0.37 ± 0.16 % ID/g and the “Biodistribution Intestine” value [5] was 0.66 ± 0.32 % ID/g. The “Biodistribution Kidneys” value [5] was 10.9 ± 2.5 % ID/g, the “Biodistribution Liver” value [5] was 0.43 ± 0.07 % ID/g and the “Biodistribution Lung” value [5] was 0.85 ± 0.29 % ID/g. The “Biodistribution Muscle” value [5] was 0.17 ± 0.15 % ID/g, the “Biodistribution Pancreas” value [5] was 0.16 ± 0.10 % ID/g and the “Biodistribution Spleen” value [5] was 0.21 ± 0.08 % ID/g. For the same molecule, the “Biodistribution Stomach” value [5] was 0.97 ± 0.81 % ID/g, the “Biodistribution Tumor” value [5] was 0.94 ± 0.22 % ID/g and the “Biodistribution Adrenals” value [6] was 2.0 ± 0.25 % ID/g. For the same molecule, the “Biodistribution Blood” value [6] was 0.53 ± 0.13 % ID/g, the “Biodistribution Bone” value [6] was 0.50 ± 0.31 % ID/g and the “Biodistribution Heart” value [6] was 0.53 ± 0.03 % ID/g. For the same molecule, the “Biodistribution Intestine” value [6] was 0.30 ± 0.16 % ID/g, the “Biodistribution Kidneys” value [6] was 220 ± 24.8 % ID/g and the “Biodistribution Liver” value [6] was 0.75 ± 0.62 % ID/g. The “Biodistribution Lung” value [6] was 1.1 ± 0.21 % ID/g, the “Biodistribution Muscle” value [6] was 0.32 ± 0.30 % ID/g and the “Biodistribution Pancreas” value [6] was 0.45 ± 0.12 % ID/g. The “Biodistribution Spleen” value [6] was 20.0 ± 4.2 % ID/g, the “Biodistribution Stomach” value [6] was 0.28 ± 0.17 % ID/g and the “Biodistribution Tumor” value [6] was 14.1 ± 4.1 % ID/g.

In the case of `O=C(O)CC[C@H](NC(=O)N[C@@H](CCCCNC(=O)[C@H](Cc1ccc2ccccc2c1)NC(=O)c1ccc(CNC(=O)[C@H](CCC(=O)O)NC(=O)[C@H](CCC(=O)O)NC(=O)c2ccc([18F])nc2)cc1)C(=O)O)C(=O)O` [[^18/19F]PSMA-1007], the “Internalization (internalized activity)” value (LNCaP cells [7]) is listed as 118 ± 5 % of reference, the “Lipophilicity Log D” value ([8]; listed as [^18F]PSMA-1007) is listed as -1.6 ± 0.02 and the HSA-binding (human serum albumin [9]) is listed as 98%. The HSA-binding (human serum albumin [9]; listed as [^19F]PSMA-1007) was greater than 96%.

In the case of `CC(C)(C)[Si](F)(c1ccc(C(=O)O)cc1)C(C)(C)C` [SiFA-moiety, 4-(di-tert-butylfluorosilyl)benzoic acid], the “log P” value [10] is listed as 3.6.

For `O=C(O)CC[C@H](NC(=O)N[C@@H](CCCCNC(=O)c1ccc(F)nc1)C(=O)O)C(=O)O` [[^18/19F]DCFPyL], the “Internalization (internalized activity)” value (LNCaP cells [7]) is listed as 118 ± 4 % of reference, the “Lipophilicity Log D” value ([8]; listed as [^18F]DCFPyL) is listed as -3.4 ± 0.03 and the HSA-binding (human serum albumin [9]) is listed as 14%.

For `CC(C)(C)[Si]([18F])(c1ccc(C(=O)NC[C@H](NC(=O)CC[C@@H](C(=O)O)N2CCN(CC(=O)[O-])CCN(CC(=O)[O-])CCN(CC(=O)[O-])CC2)C(=O)N[C@H](CCCCNC(=O)CCC(=O)NCCC[C@@H](NC(=O)CC[C@H](NC(=O)N[C@@H](CCC(=O)O)C(=O)O)C(=O)O)C(=O)O)C(=O)O)cc1)C(C)(C)C.[Ga+3]` [[^18F, ^natGa]rhPSMA-7.4], the HSA-binding (human serum albumin [3]) was 97%, the “Abundance (enrichment) of the isomer in tissue compared to time point of injection” value (LNCaP tumor-bearing mice) was “lowest enrichment in blood, liver and kidney, but also the lowest uptake by tumors” and the “Internalization (internalized activity)” value (LNCaP cells [4]) was 207 ± 4 % of reference. For the same molecule, the “Biodistribution Adrenals” value [5] was 0.03 ± 0.04 % ID/g, the “Biodistribution Blood” value [5] was 0.82 ± 0.17 % ID/g and the “Biodistribution Bone” value [5] was 1.0 ± 0.8 % ID/g. The “Biodistribution Heart” value [5] was 0.37 ± 0.05 % ID/g, the “Biodistribution Intestine” value [5] was 0.36 ± 0.08 % ID/g and the “Biodistribution Kidneys” value [5] was 7.2 ± 2.4 % ID/g. The “Biodistribution Liver” value [5] was 0.48 ± 0.14 % ID/g, the “Biodistribution Lung” value [5] was 0.74 ± 0.14 % ID/g and the “Biodistribution Muscle” value [5] was 0.20 ± 0.05 % ID/g. The “Biodistribution Pancreas” value [5] was 0.18 ± 0.09 % ID/g, the “Biodistribution Spleen” value [5] was 0.28 ± 0.15 % ID/g and the “Biodistribution Stomach” value [5] was 0.20 ± 0.07 % ID/g. For the same molecule, the “Biodistribution Tumor” value [5] was 0.99 ± 0.19 % ID/g, the “Biodistribution Adrenals” value [6] was 3.57 ± 2.38 % ID/g and the “Biodistribution Blood” value [6] was 1.15 ± 0.30 % ID/g. The “Biodistribution Bone” value [6] was 0.62 ± 0.30 % ID/g, the “Biodistribution Heart” value [6] was 0.71 ± 0.26 % ID/g and the “Biodistribution Intestine” value [6] was 0.37 ± 0.09 % ID/g. For the same molecule, the “Biodistribution Kidneys” value [6] was 153 ± 80.3 % ID/g, the “Biodistribution Liver” value [6] was 0.69 ± 0.20 % ID/g and the “Biodistribution Lung” value [6] was 1.59 ± 0.61 % ID/g. The “Biodistribution Muscle” value [6] was 0.31 ± 0.08 % ID/g, the “Biodistribution Pancreas” value [6] was 0.50 ± 0.30 % ID/g and the “Biodistribution Spleen” value [6] was 18.4 ± 9.77 % ID/g. For the same molecule, the “Biodistribution Stomach” value [6] was 0.25 ± 0.06 % ID/g and the “Biodistribution Tumor” value [6] was 18.9 ± 3.27 % ID/g.
